Data on one compound can be found in paper PMC8069289 (Molecules, 2021).

Several values for one entry are separate records, joined by “and”; a condition that tells them apart may be missing. Equal values may be shown once.

The subject of data set [1] is Drosophila melanogaster. Briefly: Genotoxicity, wing spot test (SMART). The settings on record: H2O2 0.15 M, positive control.
Procedure: The wing spot test was performed to evaluate genotoxicity assays following the standard procedure [14]. Briefly, trans-heterozygous larvae for mwh and flr^3 genes were obtained by crossing four day-old virgin flr^3 females with mwh males in a 2:1 ratio. Four days after fertilization, females were allowed to lay eggs in fresh yeast medium (25 g yeast and 4 mL sterile distilled water) for 8 h in order to obtain synchronized larvae. After 72 h, larvae were collected, washed with distilled water, and clustered in groups of 100 individuals. […] Adult flies were collected and stored in 70% ethanol until the wings were removed and mounted on slides using Faure’s solution. Mutant spots were assessed in both dorsal and ventral surfaces of the wings in a bright light microscope at 400× magnification. The frequencies of each type of mutant clone per wing (single, large or twin spot) were compared with the concurrent negative control [43]. All inconclusive and positive results (p > 0.05) were analysed with the nonparametric U-test of Mann, Whitney and Wilcoxon (α = β = 0.05).
Data set [2] relates to Drosophila melanogaster. Briefly: Antitoxicity assay, combined treatment with 0.15 M H2O2. The settings on record: 0.15 M hydrogen peroxide alone, positive toxicant control concurrent to each test substance.
Procedure: Toxicity was assayed according to our standard protocols. CRB and SFRB were tested at five concentrations: 1, 4, 8.12, 32.5 and 130 mg/mL and 0.16, 0.625, 1.25, 5 and 20 mg/mL, respectively. […] Tested groups consisted of larvae fed with Drosophila Instant Medium (Formula 4–24, Carolina Biological Supply, Burlington, NC, USA) supplemented with the assessed compounds concentrations. Emerging adults of all groups were counted and toxicity was determined as the percentage of hatched individuals in each treatment compared with the negative control.

Take `OO` [H2O2, hydrogen peroxide, reference compound]: the “Twin Spots m = 5” value in the data set on Drosophila melanogaster [1] is given as 0 clones per wing. In the data set with Drosophila melanogaster [1] (No. of spots in parentheses), the “Large Simple Spots (>2 Cells) m = 5” value was 0.05 (2) clones per wing, the “Small Single Spots (1–2 Cells) m = 2” value is given as 0.375 (15) clones per wing and the “Total Spots m = 2” value was 0.425 (17) clones per wing. In the data set on Drosophila melanogaster [2], the “Survival (%)” value is 60% and 38.46% and 58%.
